“Also recorded” adds a separate entry of the source. Ends that are not written are not given here.
Experiments:
[1] = tested on: S. epidermidis ATCC 12228; assay: Antimicrobial activity test on inoculated M17 agar plates (inhibition halo); assay type: cell-based, Staphylococcus epidermidis; settings: 2 μl of 1 mg/ml aqueous solution on inoculated M17 agar plate, overnight incubation
Protocol: (§1) Bacterial strains were grown overnight in liquid culture on rotary shakers or on agar plates using M17 media supplemented with 0.5% glucose. S. aureus ATCC 6538 and S. epidermidis ATCC 12228 liquid cultures and agar plates were grown anaerobically at 37° C. Culture volume utilized in MIC assays was 200 μl.
(§2) Antimicrobial activities of bacteriocins were tested on M17 agar plates in Examples 1 and 3. In Example 1, 2 μl of bacteriocin peptide (SEQ ID NO: 1) aqueous solutions at a concentration of 1 mg/ml were deposited on inoculated M17 agar plates of S. aureus ATCC 6538 and S. epidermidis ATCC 12228. An equivalent amount of aureocin A53 aqueous solution (1 mg/ml concentration) was used as positive control. In the case of S. epidermidis ATCC 12228, an equivalent amount of pediocin A1 aqueous solution (1 mg/ml concentration) was used as negative control.

S. aureus ATCC 6538 [2] = assay: as above; assay type: cell-based, Staphylococcus aureus; settings: for antimicrobial activity of variants (inhibition halo): 5 μl of 1 mg/ml aqueous solution on M17 agar plates of S. aureus ATCC 6538, overnight incubation, compared with SEQ ID NO: 1
Protocol: as §1, §2
In Example 3, 5 μl of bacteriocin peptides (SEQ ID NO: 1, 3-97) aqueous solutions at a concentration of 1 mg/ml were deposited on inoculated M17 agar plates of S. aureus ATCC 6538. After overnight incubation, the presence of an inhibition halo was considered as a positive result of antimicrobial activity.

[3] = tested on: S. epidermidis ATCC 12228; assay: MIC assay in liquid cultures (endpoint OD600); assay type: cell-based, Staphylococcus epidermidis; settings: liquid culture, concentrations 0.49 to 500 μg/ml
Protocol: as §1
(§3) Determination of bacteriocin (SEQ ID NO: 1) MIC values was performed in liquid cultures. Growth was assessed by measuring endpoint OD600 values in a Spectramax i3 (Molecular Devices, CA, USA). Minimum inhibitory concentration (MIC) was defined as the lowest concentration of bacteriocin which inhibited 50% of the growth of cultures as compared to reference cultures not exposed to the bacteriocin. Concentration of the bacteriocin in well 11 was 250 μg/ml in the case of S. aureus ATCC 6538 and 500 μg/ml in the case of S. epidermidis ATCC 12228, diluted 2-fold per subsequent well as shown in Table 3 (concentrations rounded to the second decimal): […]

S. aureus ATCC 6538 [4] = assay: MIC assay in liquid cultures (endpoint OD600); assay type: cell-based, Staphylococcus aureus; settings: calculated as average concentration between wells 10 and 11
Protocol: as §1, §3

| Substance | inhibition halo on agar plate [1] | antimicrobial activity of variants (inhibition halo) (S. aureus ATCC 6538 [2]) | also measured |
| --- | --- | --- | --- |
| aureocin A53 [reference compound] | an inhibition halo was present |  |  |
| MLFLKLVAKLGPKAAKWAWANKGKVLGWIRDGLAIDWIINKINDIVN [SEQ ID NO: 55] |  | did not compromise its antimicrobial activity |  |
| pediocin A1 [reference compound] | no inhibition halo was visible |  |  |
| MLAFLKLVAKLGPKAAKWAWANKGKVLGWIRDGLAIDWIINKINDIVN [SEQ ID NO: 1] | no inhibition halo was visible; also recorded: no inhibition halo was present |  | growth inhibition in MIC assay [3]: No growth inhibition was observed; inhibition halo on agar plate (S. aureus ATCC 6538 [2]; 2 μl of 1 mg/ml aqueous solution on inoculated M17 agar plate, overnight incubation, S. aureus ATCC 6538): An inhibition halo was visible; MIC (lowest concentration inhibiting 50% of culture growth) (S. aureus ATCC 6538 [4]): 188 µg/mL |
| MLAFLKLVAKLGPKAAKWAWANKGKVLGWIRDGLAIINKINDIVN [SEQ ID NO: 62] |  | did not compromise its antimicrobial activity |  |
| MAFLKLVAKLGPKAAKWAWANKGKVLGWIRDGLAIDWIINKINDIVN [SEQ ID NO: 54] |  | did not compromise its antimicrobial activity |  |

— patent US20240285726A1, “Bacteriocin for new application” (Syngulon S.A., priority 2021, published 2024)
